From patent US20240043859A1, “HERBICIDE-RESISTANT PROTEIN, AND GENE AND USE THEREOF” (QINGDAO KINGAGROOT CHEMICAL COMPOUND CO., LTD., priority 2020, published 2024)
Entries after “also recorded” stand apart in the source; their conditions may differ.

Tests used:
AAD-12 = target: T1, AAD-12 (Delftia acidovorans, UniProt P83309); assay: Degradation activities of AAD-12 on phenoxy acetic acid herbicides by spectrophotometry (A510); type: biochemical, Comamonas acidovorans
T1 construct: made in house; host or cells: E. coli BL21(DE3)
T1 sequence (P83309 2-292, added parts left off): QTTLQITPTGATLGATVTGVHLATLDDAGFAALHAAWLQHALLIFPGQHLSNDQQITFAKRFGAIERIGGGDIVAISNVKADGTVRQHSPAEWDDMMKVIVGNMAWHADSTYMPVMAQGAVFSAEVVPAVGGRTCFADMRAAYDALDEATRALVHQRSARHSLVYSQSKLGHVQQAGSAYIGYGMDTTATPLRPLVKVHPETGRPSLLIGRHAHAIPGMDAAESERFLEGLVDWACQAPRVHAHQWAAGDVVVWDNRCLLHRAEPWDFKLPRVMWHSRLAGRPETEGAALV
Experimental: As reported in literature (Fukomori and Flausinger, Purification and characterization of 2,4-dichlorophenoxyacetate/alpha-ketoglutarate dioxygenase Journal of Biological Chemistry (1993) 268(32): 24311-24317), the constructed expression vector pET15b-AAD12 was transformed into E. coli BL21(DE3) and induced by IPTG for expression. After cells were collected and lysed, Ni-NTA column was used for purification and the purity of the protein was analyzed by SDS-PAGE.
Since phenolic products were produced by AAD-12-substrate catalytic reaction, 4-aminoantipyrine and potassium ferricyanide could be used to develop color with the products in an alkaline environment to generate red products with absorption at 510 nm, and the relevant parameters were directly read with a microplate reader.

Arabidopsis thaliana = assay: Spray testing of T2 generation transgenic Arabidopsis thaliana; type: in vivo; settings: 100 g/ha foliage spray, 10 days after spraying
Excerpt: The T2 generation seedlings of four representative transformants, pQY2309, pQY2310, pQY2311 and pQY2313, were selected for further spray testing. Four lines were randomly selected from the T2 generation generated by transformation of each vector, and respectively foliage-sprayed with 2,4-D (100 g/ha), MCPA (100 g/ha) and 2,4-DB sodium (100 g/ha) when Arabidopsis thaliana seeds germinated, transplanted and the seedlings grew to 5-7 leaf. Non-transgenic wild-type Col-0 served as a negative control. The level of resistance was assessed 10 days after spraying.

soybean William82 = assay: Spray testing of transgenic soybean T1 seedlings; type: in vivo; settings: 4.48 kg/ha foliage spray, 10 days after spraying
Excerpt: 1. Vector construction: the pQY2330 vector (see FIG. 8-1) was used as the overexpression vector, containing a Bar resistance gene that can be used as a selection marker for glufosinate. The AAD-like gene, QYD42, SEQ ID NO. 83, was linked to the Xho I restriction site by seamless cloning to construct the transgenic expression vector pQY2330, of which the expression cassette consisted of a double CaMV35S promoter, the AAD-like gene QYD42 and a […] Nos terminator.
2. Genetic transformation of soybeans: Soybean transformation was carried out using the Agrobacterium-mediated cotyledon nodes transformation method (Pareddy D, Chennareddy S, Anthony G, et al. Improved soybean transformation for efficient and high throughput transgenic production[J]. Transgenic Research, 2020, 29(968)). A monoclone of the Agrobacterium (EHA105) comprising the overexpression vector pQY2330 was inoculated into 5 ml YEP liquid medium (containing 25 mg/L Rifampicin and 50 mg/L Kanamycin) and shaking-cultured at 220 rmp/min, 28° C. for 8 hours. And then 0.2-0.3 ml bacteria solution was transferred to 200 ml YEP liquid medium (containing 25 mg/L Rifampicin and 50 mg/L Kanamycin) and shaking-cultured at 220 rmp/min, 28° C. overnight until the bacteria reached the exponential growth stage, then centrifuged at 4000 rmp/min for 20 min to collect the cells into a 50 ml centrifuge tube (sterilized). […]

[1] = AAD-12 enzyme with substrate, chromogenic detection at 510 nm

## O=C(O)COc1ccc(Cl)cc1Cl [2,4-D, (2,4-dichlorophenoxy)acetic acid, reference compound]
AAD-12
  Degradation activity of expressed AAD-12 enzyme on the substrate: degradation activities
AAD-12; [1]
  A510 of reaction group, Reaction 1: 0.2865
  A510 of reaction group, Reaction 2: 0.2766
  A510 of reaction group, Reaction 3: 0.2652
AAD-12; reaction group versus blank group
  Increased A510: +0.130
Arabidopsis thaliana
  Effect of the herbicide spray on wild-type Col-0: all or almost all non-transgenic wild-type Arabidopsis thaliana died; also recorded: all die
Soybean William82
  Effect of the herbicide spray on non-transgenic soybean William82: all non-transgenic recipient parents died and die
